Reference: patent publication US11439657B2, “Cancer stem cell growth inhibitor using miRNA” (CancerStem Tech Inc., priority 2017, dated 2022)

Assays:
[1] = tested on: human large bowel cancer cells (DLD1 line); assay: Wound healing assay; format: cell-based; settings: 20 pmol/well, wound area at 24 and 48 hours, compared to the negative control, FIG. 17
Protocol: Wound healing assay was performed using Culture-Insert (NIPPON Genetics Co, Ltd). In each well of a 24-well plate, 70 μl of cell suspension (4.9×10^4 cells/well) prepared by suspending human large bowel cancer cells (DLD1 line) in RPMI medium (containing 10% by volume FBS) and an insert that could create a constant gap of 0.5±0.05 mm in width between cells were placed, followed by culture for 1 day, so that a single layer of cells and an area where there is no cell (wound area) corresponding to the gap were formed at the bottom of the well. Then, the insert and culture supernatant were remove, 500 μl of DMEM medium (serum free) was added to each well, and further a mixture of lipofectamin RNAiMAX Regent (final concentration in well: 2 μl/well) and hsa-miR-3065-3p (final concentration in well: 20 pmol/well) was added, followed by culture for 1 day. Thereafter, the medium was changed to RPMI medium (containing 10% by volume FBS), followed by culture for 48 hours. The culture using RPMI medium (containing 10% by volume FBS) had the medium replaced with a fresh medium at 24 hours after the start of culture. The area of wound area was determined at 0, 24 and 48 hours from the start of culture using RPMI medium (containing 10% by volume FBS). When the wound area at 0 hour from the start of culture was 100%, the percentages of wound area at 24 and 48 hours after culture were determined. […]

[2] = tested on: human large bowel cancer cells (HT29 line, HCT116 line and DLD1 line); assay: Proliferation assay (absorbance at 450 nm over time); format: cell-based; settings: HT29, HCT116 and DLD1 lines; 50 nM; culture for 96 hours; versus control miRNA; FIG. 13
Protocol: A cell suspension prepared by suspending human large bowel cancer cells (HT29 line, HCT116 line and DLD1 line) in DMEM medium (containing 10% by volume FBS) was seeded in each well of a 96-well plate at 3×10^3 cells/well, followed by culture at 37° C. overnight. Then, a mixture of lipofectamin RNAiMAX, Reagent (final concentration in each well: 0.03 μL/ml) and hsa-miR-3065-3p (final concentration in each well: 50 nM) was added for transfection. Subsequently, culture was carried out for 96 hours, and the absorbance at 450 nm was measured over time. In addition, tests were also performed wider the same condition on a case where a control miRNA (SEQ ID NO: 9) was used (control miRNA, negative control) in place of hsa-miR-3065-3p.
In FIG. 13, the time-course of relative values of the absorbance is shown, in which the relative values were determined when the absorbance after culture for 24 hours from transfection of hsa-miR-3065-3p was 1. […] This is because, as described above, among human large bowel cancer cells (HT29 line, HCT116 line and DLD1 line), cancer stem cells are present, so that hsa-miR-3065-3p is considered to intensively suppress proliferation of the cancer stem cells in particular, leading to the result.

hsa-miR-3065-3p: human-derived miR-3065-3p; base sequence set forth in SEQ ID NO: 2 as mature miRNA (UCAGCACCAGGAUAUUGUUGGAG; listed as RNA, chemistry not given here; listed as Homo sapiens)
decrease in wound area (migration) [1]: significantly suppressed | proliferation inhibitory effect on human large bowel cancer cells [2]: high proliferation inhibitory effect
